In patent publication US20130123618A1, “Imaging Agents” (priority 2008, published 2013):
Read-outs that look alike come from different tables or passages of the source.

Experiments:
Morris 51236 hepatomas = details: cited from earlier work
[1] = tested on: tumor lesions in 33 patients; details: single photon rectilinear scanner; cited from earlier work
tumor lesions = details: 7 human subjects, PET scanner; cited from earlier work
9L Rat gliosarcoma cells = assay: in vitro amino acid uptake in 9L cells; assay type: cell-based
From the text: (§1) Compounds have been evaluated in vitro for tumor binding specificity (i.e. uptake cells) using a variety of tumor cell lines available in the art, along with reference compounds such as Me-AlB and BCH. Detailed description of these assays can be found in Martarello et al. (2002) Journal of Medicinal Chemistry, 45:2250-2259 and McConathy et al. (2003) Nuclear Medicine and Biology, 30:477-490. These so called “amino acid uptake studies” are typically carried out with radiolabeled compounds in at least five phenotypically different human tumor cell lines (e.g., A549 lung carcinoma, MB468 breast carcinoma, DU145 prostate carcinoma-androgen independent, LnCap-androgen dependent, SKOV3 ovarian carcinoma, U87 glial blastoma, MIA PaCa-2 pancreas carcinoma, MDA MB231 breast carcinoma). These tumor cell lines can be grown either in vitro or in vivo with severe combined immunodeficiency (SCID) mice as a host. The afore-mentioned tumor cell lines are available at the Winship Cancer Institute of Emory University.
(§2) For the in vitro amino acid uptake studies, all cells can be grown to monolayer confluency in T-175 culture flasks [Corning, Corning, N.Y.] (approx. 1×10^8 cells/flask) in Dulbecco's Modified Eagle's Medium (DMEM) [Sigma, St. Louis, Mo.] in a humidified incubator (37° C., 5% CO2/95% air). […]
(§3) In the in vitro studies the uptake rate of each amino acid compound is measured in each tumor line, as well as the dominant transport mechanisms of each tumor cell line. After trypsinization, cells are resuspended in serum-free media, then counted on a hemocytometer, with viability assessed through Trypan blue staining. […] The vials are placed in a Cobra-II gamma counter (Packard, Meriden, Conn.), with the activity per cell number determined. […] Saline washes are performed as described above, and the filtered cells' radioactivity determined on the gamma counter. […]
(§4) The uptake of all compounds were measured in human and rat cancer cell lines and the dominant transport (“A” and “L”) mechanism of each culture were determined. […]

[2] = tested on: DU145 Human Prostate carcinoma cells; assay: in vitro amino acid uptake in DU145 cells; assay type: cell-based
From the text: as §1, §2, §3, §4

[3] = tested on: A549 Human Lung adenocarcinoma cells; assay: in vitro amino acid uptake in A549 cells; assay type: cell-based
From the text: as §1, §2, §3, §4

U87 Human Glioma cells = assay: in vitro amino acid uptake in U87 cells; assay type: cell-based
From the text: as §1, §2, §3, §4

[4] = tested on: MIA PaCa-2 Human Pancreas carcinoma cells; assay: in vitro amino acid uptake in MIA PaCa-2 cells; assay type: cell-based
Procedure: (§5) Compounds have been evaluated in vitro for tumor binding specificity (i.e. uptake cells) using a variety of tumor cell lines available in the art, along with reference compounds such as Me-AlB and BCH. Detailed description of these assays can be found in Martarello et al. (2002) Journal of Medicinal Chemistry, 45:2250-2259 and McConathy et al. (2003) Nuclear Medicine and Biology, 30:477-490. […]
as §3, §4

[5] = tested on: MDA MB231 Human Breast carcinoma cells; assay: in vitro amino acid uptake in MDA MB231 cells; assay type: cell-based
Procedure: as §5, §3, §4

[6] = tested on: SKOV3 Human Ovarian carcinoma cells; assay: in vitro amino acid uptake in SKOV3 cells; assay type: cell-based
From the text: as §1, §2, §3, §4

[7] = tested on: MDA MB468 Human Breast carcinoma cells; assay: in vitro amino acid uptake in MDA MB468 cells; assay type: cell-based
From the text: as §1, §2, §3, §4

[8] = tested on: LnCap Human Prostate carcinoma cells; assay: in vitro amino acid uptake in LnCap cells; assay type: cell-based
Procedure: as §5, §3, §4

[9] = tested on: A549, human lung cancer cells implanted in flanks; assay: tissue distribution in SCID mice bearing A549 tumors; assay type: in vivo; details: for tissue distribution, blood / tissue distribution, bone / tissue distribution, brain / tissue distribution, heart / tissue distribution, kidney / tissue distribution, liver / tissue distribution, lung / tissue distribution, muscle / tissue distribution, pancreas / tissue distribution, spleen / tissue distribution, tumor: A549 tumor-bearing SCID mice, tail vein, ave, listed as Anti 2-[^18F]FACPC Enantiomer 2
Procedure: (§6) For the in vitro amino acid uptake studies, all cells can be grown to monolayer confluency in T-175 culture flasks [Corning, Corning, N.Y.] (approx. 1×10^8 cells/flask) in Dulbecco's Modified Eagle's Medium (DMEM) [Sigma, St. Louis, Mo.] in a humidified incubator (37° C., 5% CO2/95% air). Media are supplemented with 10% fetal calf serum [Hyclone, Logan, Utah], and antibiotics (10,000 U/ml penicillin and 10 mg/ml streptomycin) (Sigma, St. Louis, Mo.). For tissue culture passage, monolayer cells are detached by gentle trypsinization, resuspended in complete media, and split 1:10 into new T-flasks. Cultures are passaged weekly, and fed fresh media every 2 to 3 days. To initiate tumor growth in SCID mice, 1×10^6 cells are injected s.c. bilaterally into the flanks (inguinal region) of the recipient animals using a 1 ml syringe with a 27 gauge needle. Ex vivo experiments can be performed with animals containing tumors weighing between 500 mg and 1 g, as estimated by caliper measurement (tumor weight=(π/6)*abc, where a, b and c are the tumor length, width and height, respectively).
(§7) Tissue distribution of the compounds is measured in SCID mice (average weight, 20-25 g) bearing human tumors as follows. The candidate radioligands (20 uCi in 0.4 ml 0.9% NaCl) are injected into the tail vein of tumor-bearing mice. […] Tissues (blood, heart, liver, lungs, kidneys, bone, thyroid, muscle, brain and tumor) are excised, rinsed in saline, and blotted dry. The tissues are weighed, placed into 12×75 mm glass vials, the radioactivity determined with a gamma counter, and the percent dose/gram calculated. Total activities of blood and muscle are calculated by assuming that they account for 7% and 40% of the total body mass, respectively.
(§8) Tables 3-7 show the results of the biodistribution studies with the separate enantiomers of anti-2-[^18F]FACPC and racemic anti-2-[^18F]FACBC as a comparison in SCiD mice implanted in their flanks with A549, human lung cancer cells and DU145, human prostate cancer cells.

tumor cells = assay: overall conclusion of uptake studies in cancer cells in vitro; assay type: cell-based
Procedure: In the in vitro studies the uptake rate of each amino acid compound is measured in each tumor line, as well as the dominant transport mechanisms of each tumor cell line. After trypsinization, cells are resuspended in serum-free media, then counted on a hemocytometer, with viability assessed through Trypan blue staining. Approximately 1×10^7 cells are exposed to each compound (15 μCi) in 15 ml of amino acid free media for 5, 10, 15, 30 and 60 minutes at 37° C. Cells are then centrifuged at 150×g for 5 minutes, rinsed in 5 ml cold-saline, recentrifuged, resuspended in 3 ml saline, and placed into 12×75 mm glass vials (Fisher, Pittsburgh, Pa.). The vials are placed in a Cobra-II gamma counter (Packard, Meriden, Conn.), with the activity per cell number determined. Inhibition studies determine the dominant transport mechanism (L, A or ASC) for each line [Martarello et al. (2002) supra; McConathy et al. (2003) supra]. For these studies, cells are exposed to the compounds for 30 minutes in amino acid free media containing one of three inhibitors (2-amino-norbornyl-2-carboxylic acid (BCH), 10 mM; α-(methylamino)-isobutyric acid (MeAlB), 10 mM; and an alanine-serine-cysteine mixture 1:1:1 (acs), 10 mM). Saline washes are performed as described above, and the filtered cells' radioactivity determined on the gamma counter. Comparisons with the 30 minute control uptake indicate the major transporters used. Results of these studies are found in FIGS. 1-18.
Approximately 10^6 cells were exposed to the [^18F]amino acid candidate (5 μCi) in 3 ml of amino acid-free media±transporter inhibitors (10 mM) for 30 minutes under incubation conditions by the method previously described (McConathy, J.; Martarello, L.; Malveaux, E.; Camp, V.; Bowers, G.; Olson, J.; Goodman, M. (2002) Radiolabeled amino acids for tumor imaging with PET: radiosynthesis and biological evaluation of [^18F]2-amino-3-fluoro-2-methylpropanoic acid and [^18F]3-fluoro-2-methyl-2-(methylamino)-propanoic acid. J. Med. Chem. 45, 2240-2249). The inhibition studies determined the dominant transport mechanism (L, A) for each candidate PET amino acid for each tumor model. 2-Methylaminoisobutyric acid (MeAlB) and 2-aminobicyclo-[2.2.1]-heptane-2-carboxylic acid (BCH) serve as inhibitors for the “A”, “L” transport systems, respectively.

[10] = tested on: DU145, human prostate cancer cells implanted in flanks; assay: tissue distribution in SCID mice bearing DU145 tumors; assay type: in vivo; details: DU145 tumors, SCID mice, time points sampled post injection
Procedure: as §6, §7, §8

[11] = carbon-14 labeled, rats transplanted with Morris 51236 hepatomas

## NC1(C(=O)O)CC1 [ACPRC, 1-amino-cyclopropane-1-carboxylic acid]
Morris 51236 hepatomas; [11]
  tumor uptake: 1.2 % dose/g

## NC1([11C](=O)O)CCCC1 [[^11C]ACPC, 1-Aminocyclopentane-1 [^11C]Carboxylic Acid]
[1]
  lesions with increased uptake: 70%
Tumor lesions
  uptake in lesions: increased uptake was observed in lesions in all subjects

## NC1(C(=O)O)CCC1 [ACBC]
Morris 51236 hepatomas; rat, in vivo
  tumor uptake: 4.6 % dose/g

## N[C@]1(C(=O)O)CCC[C@@H]1[18F] (single isomer, unassigned; enantiomer 2) [Enantiomer 2, anti-2-[^18F]FACPC]
9L Rat gliosarcoma cells
  % Dose uptake per 0.5 × 10−6 Cells: 7.5 % Dose/0.5 × 10^−6
[2]
  % Dose uptake per 0.5 × 10−6 Cells: 4.7 % Dose/0.5 × 10^−6
[3]
  % Dose uptake per 0.5 × 10−6 Cells: 9.6 % Dose/0.5 × 10^−6
U87 Human Glioma cells
  % Dose uptake per 0.5 × 10−6 Cells: 17 % Dose/0.5 × 10^−6
[4]
  % Dose uptake per 0.5 × 10−6 Cells: 3.8 % Dose/0.5 × 10^−6
[5]
  % Dose uptake per 0.5 × 10−6 Cells: 6.4 % Dose/0.5 × 10^−6
[6]
  % Dose uptake per 0.5 × 10−6 Cells: 5.5 % Dose/0.5 × 10^−6
[7]
  % Dose uptake per 0.5 × 10−6 Cells: 7.5 % Dose/0.5 × 10^−6
[8]
  % Dose uptake per 0.5 × 10−6 Cells: 3.8 % Dose/0.5 × 10^−6
[9]; 15 min
  tissue distribution, blood: 3.68 percent dose/gram
  tissue distribution, bone: 2.50 percent dose/gram
  tissue distribution, brain: 0.53 percent dose/gram
  tissue distribution, heart: 3.18 percent dose/gram
  tissue distribution, kidney: 10.81 percent dose/gram
  tissue distribution, liver: 2.86 percent dose/gram
  tissue distribution, lung: 4.75 percent dose/gram
  tissue distribution, muscle: 2.07 percent dose/gram
  tissue distribution, pancreas: 40.68 percent dose/gram
  tissue distribution, spleen: 9.37 percent dose/gram
  tissue distribution, tumor: 8.13 percent dose/gram
[9]; 60 min
  tissue distribution, blood: 1.17 percent dose/gram
  tissue distribution, bone: 1.77 percent dose/gram
  tissue distribution, brain: 0.58 percent dose/gram
  tissue distribution, heart: 1.82 percent dose/gram
  tissue distribution, kidney: 3.73 percent dose/gram
  tissue distribution, liver: 1.22 percent dose/gram
  tissue distribution, lung: 1.77 percent dose/gram
  tissue distribution, muscle: 1.78 percent dose/gram
  tissue distribution, pancreas: 16.42 percent dose/gram
  tissue distribution, spleen: 2.95 percent dose/gram
  tissue distribution, tumor: 5.78 percent dose/gram
Tumor cells
  selective uptake in tumor cells: selectively taken up in tumor cells

## N[C@]1(C(=O)O)CCC[C@@H]1[18F] (mixture of isomers) [Enantiomer 13, (1S,2S) and (1R,2R) anti-1-amino-2-[^18F]fluorocyclopentyl-1-carboxylic acid]
[9]; A549 tumors, SCID mice, time points sampled post injection
  uptake of radioactivity in the tumors compared with muscle: greater than muscle
[10]
  uptake of radioactivity in the tumors compared with muscle: greater than muscle

## NC1([11C](=O)O)CCC1 [[^11C]ACBC, 1-aminocyclobutane-1-[^11C]carboxylic acid]
Tumor lesions
  uptake in lesions: increased uptake was observed in lesions in all subjects

## NC1(C(=O)O)CCCCC1 [ACHC, 1-amino-cyclohexane-1-carboxylic acid]
Morris 51236 hepatomas; [11]
  tumor uptake: 0.9 % dose/g

## NC1(C(=O)O)CCCC1 [ACPC, 1-amino-cyclopentane-1-carboxylic acid]
Morris 51236 hepatomas; [11]
  tumor uptake: 3.6 % dose/g
